Data from US4076703A, “Dipeptide derivatives and their production” (Shionogi & Co., Ltd., priority 1974, dated 1978).

What was measured:
DS male mice [1] = assay: Taming activity (inhibition of electroshock-induced fighting); format: in vivo; conditions: for Taming activity ED50: administered 60 minutes prior to experiment, inhibition of fighting responses, 5 pairs of mice; for times more potent than diazepam in the taming activity: relative to diazepam (Compound No. 5)
Description: (§1) This test was measured on DS male mice.
These pairs of mice were selected in the morning and used for drug test in the afternoon. The test compound was administered to both mice of the pairs 60 minutes prior to the experiment. Results were obtained as the mean percentage of inhibition of fighting responses in a group of 5 pairs and shown by ED50 [Tedeschi, et al.: J. Pharmacol Exp. Thev., 125, 28-34 (1959)].

DS male mice [2] = assay: Anti-pentylenetetrazol activity; conditions: for Anti-pentylenetetrazol activity, ED50: test compound given orally 60 minutes prior to 125 mg/kg s.c. pentylenetetrazol, complete protection against mortality, observed 2 hours; for times more potent than diazepam in the anti-pentylenetetrazol activity: relative to diazepam (Compound No. 5)
Description: This test was measured on a group of 10 DS male mice. […] In this test, the test compound was given orally 60 minutes prior to the administration of pentylenetetrazol. The observation was made for 2 hours after the administration of pentylenetetrazol. The criterion of anticonvulsant activity was determined as being complete protection against mortality. The convulsions were disregarded. Results were shown as ED50 [Goodman, et al.: J. Pharmacol., 108, 168 (1953)].

DS male mice [3] = assay: Rotarod performance activity; format: in vivo; conditions: mouse falling from rod (5 rotations per minute) within less than 2 minutes
Description: 3. Rotarod performance activity:
as §1
The mouse was put on a scraped rod of wood, 3 cm in diameter, turning at the rate of five rotations per minute. The mice that could remain on the rod for 3 or more minutes in successive trails were selected and placed in a group of 10 mice for each dose. If the mouse fell down from the rod within less than 2 minutes, the test compound was considered to be effective. Results were shown by ED50 [Dunham, et al.: J. Am. Pharm. Assoc., 46, 208 (1957)].

DS male mice [4] = conditions: oral single dose, observed for 72 hours, Bliss method
Description: The test compound was orally administered to DS male mice in different single doses. For each dose, 10 mice were used, their weight ranging from 20 to 23 grams. […] The mortality was calculated by the Bliss method [Bliss: Ann.

[5] = relative to chlordiazepoxide (Compound No. 4)

Row | SMILES | times more potent than chlordiazepoxide in the taming activity (DS male mice [1]; [5]) [times] | times more potent than chlordiazepoxide in the anti-pentylenetetrazol activity (DS male mice [2]; [5]) [times] | Anti-pentylenetetrazol activity, ED50 (DS male mice [2]) [mg/kg] | Taming activity ED50 (DS male mice [1]) [mg/kg] | times more potent than diazepam in the taming activity (DS male mice [1]) [times] | times more potent than diazepam in the anti-pentylenetetrazol activity (DS male mice [2]) [times] | Rotarod performance ED50 (DS male mice [3]) [mg/kg] | Acute toxicity LD50 (DS male mice [4]) [mg/kg]
1 | CN(C(=O)CNC(=O)CN)c1ccc(Cl)cc1C(=O)c1ccccc1 [Compound No. 1, 2-benzoyl-4-chloro-N-methyl-N^α -glycyl-glycinanilide] | 2 to 3 | 2 to 3 | 1.0 |  |  |  |  | 
2 | CN(C(=O)CNC(=O)CN)c1ccc(Cl)cc1C(=O)c1ccccc1Cl.O [Compound No. 2, 2-o-chlorobenzoyl-4-chloro-N-methyl-N^α -glycyl-glycinanilide hydrate] |  |  | 0.58 | 3.0 | 2 to 4 | 2 to 4 |  | 
3 | CN(C(=O)CNC(=O)CN)c1ccc(Cl)cc1C(=O)c1ccccc1F.Cl [Compound No. 3, 2-o-fluorobenzoyl-4-chloro-N-methyl-N^α -glycyl-glycinanilide hydrochloride] |  |  | 0.33 | 1.6 | 2 to 4 | 2 to 4 | 17.0 | > 1000
4 | CNC1=Nc2ccc(Cl)cc2C(c2ccccc2)=[N+]([O-])C1 [Compound No. 4, Chlordiazepoxide] |  |  |  |  |  |  | 50.0 | 
5 | CN1C(=O)CN=C(c2ccccc2)c2cc(Cl)ccc21 [Compound No. 5, Diazepam] |  |  |  |  |  |  | 9.03 | 
